Measurements reported in the NIST ThermoML archive (doi:10.1021/acs.jced.5b00366).

Key:
[1] = 102 kPa, Liquid, Vibrating tube method
[2] = xn = mol fraction of the nth substance listed; settings: 102 kPa, Liquid, Vibrating tube method
[3] = mn = molality of the nth substance listed, in mol/kg; settings: 102 kPa, Liquid, Vibrating tube method

CCCCO [butan-1-ol]
[1]
Settings	mass density [kg/m3]
293.15 K	809.84
298.15 K	806.03
303.15 K	802.19
308.15 K	798.38

CCCCO [butan-1-ol] + CO
mass density [kg/m3], [2]
Settings	293.15 K	298.15 K	303.15 K	308.15 K
x1 = 0.05	793	788.48	783.92	779.32
x1 = 0.1	794.55	790.15	785.69	781.19
x1 = 0.15	795.82	791.52	787.15	782.74
x1 = 0.2	797.09	792.81	788.52	784.19
x1 = 0.25	798.29	794.06	789.82	785.52
x1 = 0.3	799.4	795.23	791.01	786.78
x1 = 0.4	801.48	797.4	793.26	789.13
x1 = 0.5	803.28	799.27	795.21	791.18
x1 = 0.6	804.87	800.94	796.94	792.99
x1 = 0.7	806.38	802.48	798.57	794.64
x1 = 0.8	807.62	803.77	799.91	796.04
x1 = 0.9	808.83	804.99	801.12	797.29
x1 = 1	809.84	806.03	802.19	798.38

[Cd+2].[I-].[I-] [cadmium iodide (CdI2)] + CCCCO
mass density [kg/m3], [3]
Settings	m1 = 0.004	m1 = 0.005	m1 = 0.006	m1 = 0.008	m1 = 0.01	m1 = 0.02	m1 = 0.05	m1 = 0.08
293.15 K	811.57	811.75	811.98	812.48	813.03	815.24	822.26	830.17
298.15 K	807.62	807.92	808.19	808.94	809.67	811.39	819.27	826.26
303.15 K	803.74	804.06	804.49	805.19	805.87	807.51	814.48	822.32
308.15 K	799.64	800.2	800.59	801.3	802.1	803.62	810.6	818.39

[Cd+2].[I-].[I-] [cadmium iodide (CdI2)] + CO
mass density [kg/m3], [3]
Settings	m1 = 0.004	m1 = 0.005	m1 = 0.006	m1 = 0.008	m1 = 0.01	m1 = 0.02	m1 = 0.05	m1 = 0.08
293.15 K	792.58	792.87	793.02	793.63	794.17	797.09	805.07	811.5
298.15 K	787.92	788.22	788.45	789.1	789.72	792.37	800.28	806.75
303.15 K	783.18	783.49	783.71	784.31	784.72	787.65	795.4	801.87
308.15 K	778.43	778.74	778.86	779.43	780.04	782.94	790.79	797.4

CO [methanol]
[1]
Settings	mass density [kg/m3]
293.15 K	791.34
298.15 K	786.68
303.15 K	781.96
308.15 K	777.21

CO [methanol] + CCCCO
[2], x2 = 0
Settings	mass density [kg/m3]
293.15 K	791.34
298.15 K	786.68
303.15 K	781.96
308.15 K	777.21
